From patent US20250215012A1, “IKZF2 DEGRADERS AND USES THEREOF” (REGENTS OF THE UNIVERSITY OF MICHIGAN, priority 2022, published 2025) come the findings set out here.

Some results are limits rather than exact numbers.

The target of the assay is IKZF2 (Homo sapiens (Human), UniProt Q96SW2+Q9UKS7). In words: IKZF2 HiBiT Assay (Jurkat-IKZF2-HiBiT cell line). Format: cell-based. Particulars: Jurkat-IKZF2-HiBiT cells, 24 hours; for DC50: read-out: HiBit assay degradation analysis DC50; for Dmax: read-out: HiBit assay degradation analysis Dmax. The method in brief:
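IKZF2 degradation was assessed as HiBiT luminescence in Jurkat-IKZF2-HiBiT cells, using lytic detection after 24 h of compound treatment at 37 °C, 5% CO2.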
For orientation: HiBiT is a short tag that completes a luciferase, so light tracks the accessible tagged protein.

Chain of IKZF2 (Q9UKS7 whole entry): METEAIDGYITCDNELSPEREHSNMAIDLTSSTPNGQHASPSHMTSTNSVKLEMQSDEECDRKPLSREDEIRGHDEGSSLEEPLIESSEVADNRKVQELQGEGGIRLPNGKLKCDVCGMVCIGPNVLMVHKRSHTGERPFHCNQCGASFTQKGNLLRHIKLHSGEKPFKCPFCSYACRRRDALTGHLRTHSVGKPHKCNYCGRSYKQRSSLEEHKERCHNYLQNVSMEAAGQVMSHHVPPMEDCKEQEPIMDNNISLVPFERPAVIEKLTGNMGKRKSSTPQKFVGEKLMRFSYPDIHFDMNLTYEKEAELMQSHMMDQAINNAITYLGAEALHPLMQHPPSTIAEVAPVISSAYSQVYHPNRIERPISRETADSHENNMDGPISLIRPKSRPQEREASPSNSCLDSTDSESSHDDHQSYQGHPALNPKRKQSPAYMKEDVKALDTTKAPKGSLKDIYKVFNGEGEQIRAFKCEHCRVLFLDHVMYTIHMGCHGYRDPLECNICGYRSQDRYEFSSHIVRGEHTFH
Chain of IKZF2 (Q96SW2 whole entry): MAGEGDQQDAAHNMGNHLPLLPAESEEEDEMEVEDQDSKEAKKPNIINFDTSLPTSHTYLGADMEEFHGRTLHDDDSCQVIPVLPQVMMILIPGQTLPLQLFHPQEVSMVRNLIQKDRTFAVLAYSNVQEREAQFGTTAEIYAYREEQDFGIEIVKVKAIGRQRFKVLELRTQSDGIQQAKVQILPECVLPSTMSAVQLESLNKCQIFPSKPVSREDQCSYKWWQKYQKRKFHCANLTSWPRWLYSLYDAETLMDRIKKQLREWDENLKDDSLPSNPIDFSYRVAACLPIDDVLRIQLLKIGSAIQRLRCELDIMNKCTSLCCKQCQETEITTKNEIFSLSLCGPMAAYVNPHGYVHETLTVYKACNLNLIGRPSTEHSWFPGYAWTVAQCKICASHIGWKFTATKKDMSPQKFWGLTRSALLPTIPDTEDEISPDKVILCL
Chain of IKZF2 (Q16531 whole entry partner): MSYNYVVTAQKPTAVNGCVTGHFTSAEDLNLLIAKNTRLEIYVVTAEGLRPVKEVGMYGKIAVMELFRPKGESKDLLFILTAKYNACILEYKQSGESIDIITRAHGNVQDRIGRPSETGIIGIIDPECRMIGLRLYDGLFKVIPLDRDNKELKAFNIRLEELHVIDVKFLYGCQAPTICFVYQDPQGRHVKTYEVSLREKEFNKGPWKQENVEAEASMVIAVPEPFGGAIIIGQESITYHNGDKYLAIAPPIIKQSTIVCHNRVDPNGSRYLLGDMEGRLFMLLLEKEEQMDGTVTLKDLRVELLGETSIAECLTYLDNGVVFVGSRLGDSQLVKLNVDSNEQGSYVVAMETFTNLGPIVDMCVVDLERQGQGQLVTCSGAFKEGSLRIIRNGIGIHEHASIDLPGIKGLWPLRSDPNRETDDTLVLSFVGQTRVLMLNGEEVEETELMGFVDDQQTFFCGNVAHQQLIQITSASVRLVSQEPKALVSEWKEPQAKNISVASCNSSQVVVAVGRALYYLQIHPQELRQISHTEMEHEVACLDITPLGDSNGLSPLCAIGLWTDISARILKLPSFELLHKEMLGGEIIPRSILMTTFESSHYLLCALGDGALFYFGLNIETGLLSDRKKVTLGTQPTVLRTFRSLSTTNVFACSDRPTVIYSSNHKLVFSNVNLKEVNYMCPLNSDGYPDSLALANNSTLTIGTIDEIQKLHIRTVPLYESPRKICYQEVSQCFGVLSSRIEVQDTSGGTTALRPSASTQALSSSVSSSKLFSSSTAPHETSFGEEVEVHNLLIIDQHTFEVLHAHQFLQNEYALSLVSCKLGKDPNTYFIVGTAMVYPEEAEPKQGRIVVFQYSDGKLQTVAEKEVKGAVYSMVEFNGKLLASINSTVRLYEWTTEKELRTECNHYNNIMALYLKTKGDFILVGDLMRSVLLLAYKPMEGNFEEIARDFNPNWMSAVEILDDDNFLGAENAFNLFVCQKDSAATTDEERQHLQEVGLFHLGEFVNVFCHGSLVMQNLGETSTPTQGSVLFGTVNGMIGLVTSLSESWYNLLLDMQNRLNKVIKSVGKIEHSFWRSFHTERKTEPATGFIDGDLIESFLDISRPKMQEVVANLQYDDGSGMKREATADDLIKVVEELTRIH

As for `O=C1CC[C@H](N2Cc3c(ccc4c3OCC43CCN(Cc4cccc(-c5cnn(CCF)c5)c4)CC3)C2=O)C(=O)N1` [Compound A293, (S)-3-(1′-(3-(1-(2-fluoroethyl)-1H-pyrazol-4-yl)benzyl)-6-oxo-6,8-dihydro-2H,7H-spiro[furo[2,3-e]isoindole-3,4′-piperidin]-7-yl)piperidine-2,6-dione], the half-maximal degradation concentration (DC50) – broadly, the concentration at which degradation of the target reaches its halfway point – was below 50 nM and the Dmax – broadly, the greatest extent of degradation seen – lay in the range of 60 to 80%.
The matching figures for `O=C1CC[C@H](N2Cc3c(ccc4c3OCC43CCN(Cc4cccc(-c5cc[nH]n5)c4)CC3)C2=O)C(=O)N1` [Compound A290, (S)-3-(1′-(3-(1H-pyrazol-3-yl)benzyl)-6-oxo-6,8-dihydro-2H,7H-spiro[furo[2,3-e]isoindole-3,4′-piperidin]-7-yl)piperidine-2,6-dione]: below 50 nM and 60 to 80%.
In the case of `O=C1CCC(N2Cc3c(ccc4c3OCC43CCN(Cc4cccc5c4OCCO5)CC3)C2=O)C(=O)N1` (centres unmarked) [Compound A199, 3-(1′-((2,3-dihydrobenzo[b][1,4]dioxin-5-yl)methyl)-6-oxo-6,8-dihydro-2H,7H-spiro[furo[2,3-e]isoindole-3,4′-piperidin]-7-yl)piperidine-2,6-dione], the DC50 is above 500 nM and the greatest degradation seen (Dmax) fell in the range of 60 to 80%.
In the case of `O=C1CCC(N2Cc3c(ccc4c3OCC43CCN(Cc4cnn(CC(F)(F)F)c4)CC3)C2=O)C(=O)N1` (centres unmarked) [Compound A232, 3-(6-oxo-1′-((1-(2,2,2-trifluoroethyl)-1H-pyrazol-4-yl)methyl)-6,8-dihydro-2H,7H-spiro[furo[2,3-e]isoindole-3,4′-piperidin]-7-yl)piperidine-2,6-dione], the 50% degradation concentration (DC50) was above 500 nM and the Dmax was in the range of 40 to 60%.
Regarding `O=C1CCC(N2Cc3c(ccc4c3OCC43CCN(Cc4cccc(-c5ncon5)c4)CC3)C2=O)C(=O)N1` (centres unmarked) [Compound A150, 3-(1′-(3-(1,2,4-oxadiazol-3-yl)benzyl)-6-oxo-6,8-dihydro-2H,7H-spiro[furo[2,3-e]isoindole-3,4′-piperidin]-7-yl)piperidine-2,6-dione], the DC50 lay in the range of 50 to 200 nM and the Dmax is 60 to 80%.
As to `O=C1CC[C@H](N2Cc3c(ccc4c3OCC43CCN(Cc4cnn(S(=O)(=O)c5ccc(Cl)cc5)c4)CC3)C2=O)C(=O)N1` [Compound A352, (S)-3-(1′-((1-((4-chlorophenyl)sulfonyl)-1H-pyrazol-4-yl)methyl)-6-oxo-6,8-dihydro-2H,7H-spiro[furo[2,3-e]isoindole-3,4′-piperidin]-7-yl)piperidine-2,6-dione], the Dmax was below 40%.
For the molecule `O=C1CCC(N2Cc3c(ccc4c3OCC43CCN(Cc4ccc(F)c5ccoc45)CC3)C2=O)C(=O)N1` (centres unmarked) [Compound A118, 3-(1′-((4-fluorobenzofuran-7-yl)methyl)-6-oxo-6,8-dihydro-2H,7H-spiro[furo[2,3-e]isoindole-3,4′-piperidin]-7-yl)piperidine-2,6-dione], the 50% degradation concentration (DC50) was above 500 nM and the maximal degradation (Dmax) was in the range of 40 to 60%.
On to `O=C1CC[C@H](N2Cc3c(ccc4c3OCC43CCN(Cc4cnn(S(=O)(=O)c5ccccc5F)c4)CC3)C2=O)C(=O)N1` [Compound A355, (S)-3-(1′-((1-((2-fluorophenyl)sulfonyl)-1H-pyrazol-4-yl)methyl)-6-oxo-6,8-dihydro-2H,7H-spiro[furo[2,3-e]isoindole-3,4′-piperidin]-7-yl)piperidine-2,6-dione], for which the “HiBit assay degradation analysis Dmax” value was “C (“C” >=40% and <60%)”; the 50% degradation concentration (DC50) lay within 200 to 500 nM.
For `O=C1CCC(N2Cc3c(ccc4c3OCC43CCN(Cc4cccc(Cn5ccnc5)c4)CC3)C2=O)C(=O)N1` (centres unmarked) [Compound A139, 3-(1′-(3-((1H-imidazol-1-yl)methyl)benzyl)-6-oxo-6,8-dihydro-2H,7H-spiro[furo[2,3-e]isoindole-3,4′-piperidin]-7-yl)piperidine-2,6-dione], the 50% degradation concentration (DC50) fell in the range of 200 to 500 nM and the greatest degradation seen (Dmax) is 60 to 80%.
The corresponding values for `O=C1CCC(N2Cc3c(ccc4c3OCC43CCN(Cc4cnn(-c5cccc(F)c5)c4)CC3)C2=O)C(=O)N1` (centres unmarked) [Compound A311, 3-(1′-((1-(3-fluorophenyl)-1H-pyrazol-4-yl)methyl)-6-oxo-6,8-dihydro-2H,7H-spiro[furo[2,3-e]isoindole-3,4′-piperidin]-7-yl)piperidine-2,6-dione] are above 500 nM and 40 to 60%.
For `O=C1CCC(N2Cc3c(ccc4c3OCC43CCN(Cc4cnn(-c5ccccc5F)c4)CC3)C2=O)C(=O)N1` (centres unmarked) [Compound A310, 3-(1′-((1-(2-fluorophenyl)-1H-pyrazol-4-yl)methyl)-6-oxo-6,8-dihydro-2H,7H-spiro[furo[2,3-e]isoindole-3,4′-piperidin]-7-yl)piperidine-2,6-dione], the half-maximal degradation concentration (DC50) is above 500 nM and the greatest degradation seen (Dmax) was below 40%.
The matching figures for `O=C1CCC(N2Cc3c(ccc4c3OCC43CCN(Cc4csc(-c5ccccc5)n4)CC3)C2=O)C(=O)N1` (centres unmarked) [Compound A82, 3-(6-oxo-1′-((2-phenylthiazol-4-yl)methyl)-6,8-dihydro-2H,7H-spiro[furo[2,3-e]isoindole-3,4′-piperidin]-7-yl)piperidine-2,6-dione]: above 500 nM and below 40%.
The corresponding values for `Cn1cnc2ccc(CN3CCC4(CC3)COc3c4ccc4c3CN(C3CCC(=O)NC3=O)C4=O)cc21` (centres unmarked) [Compound A72, 3-(1′-((1-methyl-1H-benzo[d]imidazol-6-yl)methyl)-6-oxo-6,8-dihydro-2H,7H-spiro[furo[2,3-e]isoindole-3,4′-piperidin]-7-yl)piperidine-2,6-dione] are above 500 nM and 40 to 60%.
For the molecule `O=C1CCC(N2Cc3c(ccc4c3OCC43CCN(Cc4ccnc5[nH]ccc45)CC3)C2=O)C(=O)N1` (centres unmarked) [Compound A73, 3-(1′-((1H-pyrrolo[2,3-b]pyridin-4-yl)methyl)-6-oxo-6,8-dihydro-2H,7H-spiro[furo[2,3-e]isoindole-3,4′-piperidin]-7-yl)piperidine-2,6-dione], the DC50 is above 500 nM and the Dmax was in the range of 40 to 60%.
As for `CCOc1ccc(CN2CCC3(CC2)COc2c3ccc3c2CN(C2CCC(=O)NC2=O)C3=O)cn1` (centres unmarked) [Compound A202, 3-(1′-((6-ethoxypyridin-3-yl)methyl)-6-oxo-6,8-dihydro-2H,7H-spiro[furo[2,3-e]isoindole-3,4′-piperidin]-7-yl)piperidine-2,6-dione], the half-maximal degradation concentration (DC50) was above 500 nM and the greatest degradation seen (Dmax) is below 40%.
The matching figures for `O=C1CCC(N2Cc3c(ccc4c3OCC43CCN(Cc4ccc(OC(F)F)cc4)CC3)C2=O)C(=O)N1` (centres unmarked) [Compound A197, 3-(1′-(4-(difluoromethoxy)benzyl)-6-oxo-6,8-dihydro-2H,7H-spiro[furo[2,3-e]isoindole-3,4′-piperidin]-7-yl)piperidine-2,6-dione]: above 500 nM and below 40%.
The matching figures for `O=C1CCC(N2Cc3c(ccc4c3OCC43CCN(Cc4ccccc4OCc4ccccn4)CC3)C2=O)C(=O)N1` (centres unmarked) [Compound A157, 3-(6-oxo-1′-(2-(pyridin-2-ylmethoxy)benzyl)-6,8-dihydro-2H,7H-spiro[furo[2,3-e]isoindole-3,4′-piperidin]-7-yl)piperidine-2,6-dione]: below 50 nM and 60 to 80%.
For `O=C1CCC(N2Cc3c(ccc4c3OCC43CCN(Cc4c[nH]c(-c5ccccc5)n4)CC3)C2=O)C(=O)N1` (centres unmarked) [Compound A84, 3-(6-oxo-1′-((2-phenyl-1H-imidazol-4-yl)methyl)-6,8-dihydro-2H,7H-spiro[furo[2,3-e]isoindole-3,4′-piperidin]-7-yl)piperidine-2,6-dione], the half-maximal degradation concentration (DC50) was above 500 nM and the maximal degradation (Dmax) lay in the range of 40 to 60%.
For the molecule `O=C1CCC(N2Cc3c(ccc4c3OCC43CCN(Cc4cc(F)cc5ccoc45)CC3)C2=O)C(=O)N1` (centres unmarked) [Compound A117, 3-(1′-((5-fluorobenzofuran-7-yl)methyl)-6-oxo-6,8-dihydro-2H,7H-spiro[furo[2,3-e]isoindole-3,4′-piperidin]-7-yl)piperidine-2,6-dione], the DC50 lay in the range of 200 to 500 nM and the greatest degradation seen (Dmax) lay in the range of 40 to 60%.
The corresponding values for `CC(c1ccccc1)N1CCC2(CC1)COc1c2ccc2c1CN(C1CCC(=O)NC1=O)C2=O` (centres unmarked) [Compound A318, 3-(6-oxo-1′-(1-phenylethyl)-6,8-dihydro-2H,7H-spiro[furo [2,3-e]isoindole-3,4′-piperidin]-7-yl)piperidine-2,6-dione] are below 50 nM and 60 to 80%.
The matching figures for `Cn1cc2cccc(CN3CCC4(CC3)COc3c4ccc4c3CN(C3CCC(=O)NC3=O)C4=O)c2n1` (centres unmarked) [Compound A75, 3-(1′-((2-methyl-2H-indazol-7-yl)methyl)-6-oxo-6,8-dihydro-2H,7H-spiro[furo[2,3-e]isoindole-3,4′-piperidin]-7-yl)piperidine-2,6-dione]: 50 to 200 nM and 60 to 80%.
The corresponding values for `O=C1CCC(N2Cc3c(ccc4c3OCC43CCN(Cc4cnc(-c5ccccc5)s4)CC3)C2=O)C(=O)N1` (centres unmarked) [Compound A81, 3-(6-oxo-1′-((2-phenylthiazol-5-yl)methyl)-6,8-dihydro-2H,7H-spiro[furo[2,3-e]isoindole-3,4′-piperidin]-7-yl)piperidine-2,6-dione] are above 500 nM and below 40%.
Turning to `O=C1CC[C@H](N2Cc3c(ccc4c3OCC43CCN(Cc4cccc(-c5cnn(C6COC6)c5)c4)CC3)C2=O)C(=O)N1` [Compound A265, (S)-3-(1′-(3-(1-(oxetan-3-yl)-1H-pyrazol-4-yl)benzyl)-6-oxo-6,8-dihydro-2H,7H-spiro[furo[2,3-e]isoindole-3,4′-piperidin]-7-yl)piperidine-2,6-dione], the DC50 was below 50 nM and the Dmax is 60 to 80%.
The matching figures for `CC(C)(c1ccccc1)n1cc(CN2CCC3(CC2)COc2c3ccc3c2CN([C@H]2CCC(=O)NC2=O)C3=O)cn1` [Compound A346, (S)-3-(6-oxo-1′-((1-(2-phenylpropan-2-yl)-1H-pyrazol-4-yl)methyl)-6,8-dihydro-2H,7H-spiro[furo[2,3-e]isoindole-3,4′-piperidin]-7-yl)piperidine-2,6-dione]: below 50 nM and 60 to 80%.
